Literature values in patent publication US20080280850A1, “Methods and Compositions for Treating Flaviviruses, Pestiviruses and Hepacivirus” (priority 2004, published 2008).

Tested on: HCV

NC(=O)c1ncn([C@@H]2O[C@H](CO)[C@@H](O)[C@H]2O)n1 [Ribavirin, 1-[…]D-ribofuranosyl-1-1,2,4-triazole-3-carboxamide]
effect on serum levels of HCV-RNA (patients, monotherapy): does not lower serum levels of HCV-RNA
serum amino transferase levels reduced to normal, share of patients (ribavirin alone): 40%
